Each molecule was assayed against human RIP1 kinase domain (2-375) (Homo sapiens (Human), UniProt Q13546) (assay: biochemical). Settings: Table 1; apparent Ki (Morrison tight-binding fit); 50 nM RIP1 kinase domain, 50 uM ATP, 2 hours incubation; read-out: RIP1 Ki.
Sequence of human RIP1 kinase domain (2-375) (Q13546 2-375): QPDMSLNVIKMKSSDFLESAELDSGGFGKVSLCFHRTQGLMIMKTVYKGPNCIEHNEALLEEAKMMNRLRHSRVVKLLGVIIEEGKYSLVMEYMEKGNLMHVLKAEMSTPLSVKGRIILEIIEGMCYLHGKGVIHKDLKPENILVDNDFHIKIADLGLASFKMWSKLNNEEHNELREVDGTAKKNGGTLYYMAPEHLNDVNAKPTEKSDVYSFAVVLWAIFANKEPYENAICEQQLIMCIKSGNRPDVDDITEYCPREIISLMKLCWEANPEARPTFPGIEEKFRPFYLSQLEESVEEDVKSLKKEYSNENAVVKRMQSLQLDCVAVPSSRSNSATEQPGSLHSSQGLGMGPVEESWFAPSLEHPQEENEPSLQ
Format: biochemical
How it was run: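 Ki^app comes from Morrison tight-binding fits of fractional activity versus compound concentration. Activity was read as ADP production, via tracer displacement lowering fluorescence polarization (633 nm laser). Conditions: 2 h, 50 nM insect-cell-expressed enzyme, 50 uM ATP, 30 mM MgCl2, 1 mM DTT, 0.5% DMSO, pH 7.5 Hepes.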
Work on CC(C)(C)C1CCc2onc(C(=O)N[C@H]3COc4ccccc4NC3=O)c2C1 (stereo partly drawn) [Example 65, 5-(tert-butyl)-N-((S)-4-oxo-2,3,4,5-tetrahydrobenzo[b][1,4]oxazepin-3-yl)-4,5,6,7-tetrahydrobenzo[d]isoxazole-3-carboxamide] yielded a Ki of 404 nM. C[C@@H]1CCc2onc(C(=O)N[C@H]3COc4ccccc4N(C)C3=O)c2C1 [Example 70, (R)-5-methyl-N-((S)-5-methyl-4-oxo-2,3,4,5-tetrahydrobenzo[b][l,4]oxazepin-3-yl)-4,5,6,7-tetrahydrobenzo[d]isoxazole-3-carboxamide] showed a Ki of 219 nM. CN1C(=O)[C@@H](NC(=O)c2n[nH]c3ccc(Cl)cc23)COc2ccccc21 [Example 78, (S)-5-chloro-N-(5-methyl-4-oxo-2,3,4,5-tetrahydrobenzo[b][1,4]oxazepin-3-yl)-1H-indazole-3-carboxamide] gave a Ki of 21 nM. Molecule CC1CCc2noc(C(=O)N[C@H]3COc4ccccc4N(C)C3=O)c2C1 (stereo partly drawn) [Example 66, 5-methyl-N-((S)-5-methyl-4-oxo-2,3,4,5-tetrahydrobenzo[b][1,4]oxazepin-3-yl)-4,5,6,7-tetrahydrobenzo[c]isoxazole-3-carboxamide] has a Ki of 37.4 nM.

Same assay, conditions: Table 5; apparent Ki (Morrison tight-binding fit); 50 nM RIP1 kinase domain, 50 uM ATP, 2 hours incubation; read-out: Ki
Molecule CN1C(=O)[C@@H](NC(=O)c2ncn(Cc3ccccc3F)n2)CCn2nc(CCN3CC(F)(F)C3)cc21 [Example 773, 1-[(2-fluorophenyl)methyl]-N-[(6S)-2-[2-(3,3-difluoroazetidin-1-yl)ethyl]-4-methyl-5-oxo-7,8-dihydro-6H-pyrazolo[1,5-a][1,3]diazepin-6-yl]-1,2,4-triazole-3-carboxamide] has a Ki of 189 nM. With CN1C(=O)[C@@H](NC(=O)c2ncn(Cc3ccccc3)n2)CCn2nc(CCN3CC(F)C3)cc21 [Example 769] the Ki was 233 nM. With CCC[C@@H]1CCCc2nc(C(=O)N[C@H]3COc4cc(F)cc(F)c4NC3=O)nn21 (single isomer, unassigned) [Example 716] the Ki was 3 nM. For C[C@]1(C(F)(F)F)OCc2cnc(C(=O)N[C@H]3CCc4cc(F)cc(F)c4NC3=O)cc21 [Example 746, (1S)-1-methyl-N-[(3S)-7,9-difluoro-2-oxo-1,3,4,5-tetrahydro-1-benzazepin-3-yl]-1-(trifluoromethyl)-3H-furo[3,4-c]pyridine-6-carboxamide], the Ki was 23 nM.

Same assay, conditions: human RIP1 kinase domain (2-375), 50 uM ATP, 2 hours incubation, Transcreener ADP assay; read-out: RIP1 Ki
CN1C(=O)C(NC(=O)c2ccn(Cc3ccc(F)c(F)c3)n2)CCn2ccnc21 (centres unmarked) [Example 177, 1-(3,4-difluorobenzyl)-N-(9-methyl-8-oxo-6,7,8,9-tetrahydro-5H-imidazo[1,2-a][1,3]diazepin-7-yl)-1H-pyrazole-3-carboxamide] showed a Ki of 1900 nM. CN1C(=O)[C@@H](NC(=O)c2cc3c(cn2)CO[C@@]3(C)CC(F)(F)F)COc2ccccc21 [Example 168, (S)-1-methyl-N-((S)-5-methyl-4-oxo-2,3,4,5-tetrahydrobenzo[b][1,4]oxazepin-3-yl)-1-(2,2,2-trifluoroethyl)-1,3-dihydrofuro[3,4-c]pyridine-6-carboxamide] gave a Ki of 269 nM. CN1C(=O)C(NC(=O)c2nnc(Cc3ccccc3)[nH]2)CCn2nc3ccccc3c21 (centres unmarked) [Example 108, 5-benzyl-N-(1-methyl-2-oxo-2,3,4,5-tetrahydro-1-[1,3]diazepino[1,2-b]indazol-3-yl)-4H-1,2,4-triazole-3-carboxamide] was tested, and the Ki was 133 nM. Molecule CC(C)n1ncc2c1OC[C@H](NC(=O)c1ncn(Cc3ccccc3)n1)C(=O)N2 [Example 203, (S)-1-benzyl-N-(1-isopropyl-5-oxo-4,5,6,7-tetrahydro-1H-pyrazolo[3,4-b][1,4]oxazepin-6-yl)-1H-1,2,4-triazole-3-carboxamide] has a Ki of 912 nM.

Same assay, conditions: human RIP1 kinase domain (2-375), Transcreener ADP assay, 50 uM ATP, 2 hours incubation; read-out: RIP1 Ki
For Cc1cc2n(n1)CC[C@H](NC(=O)c1cc3c(cn1)COC3(C)C1CC1)C(=O)N2C (stereo partly drawn) [Example 287, 1-cyclopropyl-N—((S)-2,4-dimethyl-5-oxo-5,6,7,8-tetrahydro-4H-pyrazolo[1,5-a][1,3]diazepin-6-yl)-1-methyl-1,3-dihydrofuro[3,4-c]pyridine-6-carboxamide], the Ki was 1400 nM. CN1C(=O)[C@@H](NC(=O)c2ncn3cnc(C(F)(F)F)cc23)COc2ccccc21 [Example 230, (S)—N-(5-methyl-4-oxo-2,3,4,5-tetrahydrobenzo[b][1,4]oxazepin-3-yl)-7-(trifluoromethyl) imidazo[1,5-c]pyrimidine-1-carboxamide] showed a Ki of 21.7 nM. CN1C(=O)[C@@H](NC(=O)c2cc3c(cn2)COC3(C)C2CC2)COc2ccccc21 (stereo partly drawn) [Example 267, 1-cyclopropyl-1-methyl-N—((S)-5-methyl-4-oxo-2,3,4,5-tetrahydrobenzo[b][1,4]oxazepin-3-yl)-1,3-dihydrofuro[3,4-c]pyridine-6-carboxamide] was tested, and the Ki was 37.4 nM. In the case of CC(c1ccc(F)cc1)n1cnc(C(=O)N[C@H]2CCn3nc(C4CC4)cc3N(C)C2=O)n1 (stereo in doubt) [Example 290, (S)—N-(2-cyclopropyl-4-methyl-5-oxo-5,6,7,8-tetrahydro-4H-pyrazolo[1,5-a][1,3]diazepin-6-yl)-1-(1-(4-fluorophenyl)ethyl)-1H-1,2,4-triazole-3-carboxamide], the Ki is reported as 117 nM. Cc1cc2n(n1)CCC(NC(=O)c1ncn(Cc3ccc(F)cc3)n1)C(=O)N2C (centres unmarked) [Example 268, N-(2,4-dimethyl-5-oxo-5,6,7,8-tetrahydro-4H-pyrazolo[1,5-a][1,3]diazepin-6-yl)-1-(4-fluorobenzyl)-1H-1,2,4-triazole-3-carboxamide] gave a Ki of 97.7 nM. Cc1cc2n(n1)CC[C@H](NC(=O)c1ncn(Cc3cc(F)ccc3F)n1)C(=O)N2C [Example 305, (S)-1-(2,5-difluorobenzyl)-N-(2,4-dimethyl-5-oxo-5,6,7,8-tetrahydro-4H-pyrazolo[1,5-a][1,3]diazepin-6-yl)-1H-1,2,4-triazole-3-carboxamide] showed a Ki of 15 nM.

Same assay, conditions: tight-binding apparent inhibition constant; human RIP1 kinase domain (2-375) 50 nM, 50 uM ATP, 2 hours; read-out: Ki
Work on Cc1cc(F)c2c(c1)OC[C@H](NC(=O)c1nc3n(n1)[C@H](C(C)C)CCC3)C(=O)N2 (single isomer, unassigned) [Example 440] yielded a Ki of 3.46 nM. Molecule CCC[C@@H]1CCCc2nc(C(=O)N[C@H]3COc4cc(C)cc(F)c4NC3=O)nn21 (single isomer, unassigned) [Example 441] has a Ki of 9.29 nM. Molecule Cc1cc2n(n1)CC[C@H](NC(=O)c1nc3n(n1)[C@@H](c1ccccc1)CC3)C(=O)N2C [Example 615, (5R)-5-phenyl-N-[(6S)-2,4-dimethyl-5-oxo-7,8-dihydro-6H-pyrazolo[1,5-a][1,3]diazepin-6-yl]-6,7-dihydro-5H-pyrrolo[1,2-b][1,2,4]triazole-2-carboxamide] has a Ki of 11 nM. Cc1cc2n(n1)CC[C@H](NC(=O)c1ncn(C[C@H]3C[C@H](C(F)(F)F)C3)n1)C(=O)N2C [Example 483] was tested, and the Ki was 110 nM. In the case of CN1C(=O)[C@@H](NC(=O)c2nc3cccc(C4CCOCC4)n3n2)COc2ccccc21 [Example 405, (S)—N-(5-methyl-4-oxo-2,3,4,5-tetrahydrobenzo[b][1,4]oxazepin-3-yl)-5-(tetrahydro-2H-pyran-4-yl)-[1,2,4]triazolo[1,5-a]pyridine-2-carboxamide], the Ki is reported as 35.6 nM. In the case of Cc1cc2n(n1)CC[C@H](NC(=O)c1nnc(Cc3cccc(F)c3F)[nH]1)C(=O)N2C [Example 513, 5-[(2,3-difluorophenyl)methyl]-N-(6S)-2,4-dimethyl-5-oxo-7,8-dihydro-6H-pyrazolo[1,5-a][1,3]diazepin-6-yl-4H-1,2,4-triazole-3-carboxamide], the Ki is reported as 29 nM. For CN1C(=O)[C@@H](NC(=O)c2ncn(Cc3ccccn3)n2)CCn2nc(C3CC3)cc21 [Example 652], the Ki was 190 nM. Cc1ncc2n1CCC(NC(=O)c1ncn(Cc3ccccc3)n1)C(=O)N2C (racemic) [Example 557, 1-benzyl-N-(1,7-dimethyl-2-oxo-4,5-dihydro-3H-imidazo[1,5-a][1,3]diazepin-3-yl)-1,2,4-triazole-3-carboxamide] gave a Ki of 130 nM. For Cc1cc(F)c2c(c1)OC[C@H](NC(=O)c1nc3n(n1)[C@@H](C(C)C)CCC3)C(=O)N2 (single isomer, unassigned) [Example 438], the Ki was 150 nM. CN1C(=O)[C@H](NC(=O)c2ncn(Cc3c(F)cccc3F)n2)CCn2cncc21 [Example 600, 1-[(2,6-difluorophenyl)methyl]-N-[(3R)-1-methyl-2-oxo-4,5-dihydro-3H-imidazo[1,5-a][1,3]diazepin-3-yl]-1,2,4-triazole-3-carboxamide] was tested, and the Ki was 50 nM. For Cc1nc(C)n2c1N(C)C(=O)[C@H](NC(=O)c1ncn(Cc3ccccc3F)n1)CC2 [Example 596, 1-[(2-fluorophenyl)methyl]-N-(3R)-1,7,9-trimethyl-2-oxo-4,5-dihydro-3H-imidazo[1,5-a][1,3]diazepin-3-yl-1,2,4-triazole-3-carboxamide], the Ki was 100 nM. Work on CN1C(=O)[C@@H](NC(=O)c2ncn(Cc3cccc(F)c3)n2)CCn2nc(C(F)(F)F)cc21 [Example 527] yielded a Ki of 23 nM. CN1C(=O)[C@@H](NC(=O)c2ncn(C[C@H]3C[C@H](C)C3)n2)CCn2nccc21 [Example 497, N—((S)-4-methyl-5-oxo-5,6,7,8-tetrahydro-4H-pyrazolo[1,5-a][1,3]diazepin-6-yl)-1-(((1R,3S)-3-methylcyclobutyl)methyl)-1H-1,2,4-triazole-3-carboxamide] showed a Ki of 41 nM. CN1C(=O)[C@@H](NC(=O)c2nc3cccc(-c4ccoc4)n3n2)COc2ccccc21 [Example 399, (S)-5-(furan-3-yl)-N-(5-methyl-4-oxo-2,3,4,5-tetrahydrobenzo[b][1,4]oxazepin-3-yl)-[1,2, 4]triazolo[1,5-a]pyridine-2-carboxamide] gave a Ki of 4.5 nM.
